Read-outs that look alike come from different tables or passages of the source.
Legend:
[1] = molecular target: ERα (wild type) (Homo sapiens (Human), UniProt P03372); test: ERα (wild type) competition binding assay; conditions: 3H-estradiol competition; Ki from IC50 by Cheng-Prusoff
Description: Add the test compound at 10 different concentrations ranging from 10,000 nM to 0.5 nM, and determine nonspecific binding in the presence of 1 μM of 1713 estradiol. Incubate the binding reaction (140 μL) for 4 hours at room temperature, and then add cold dextran-charcoal buffer (70 μL) (containing per 50 mL of assay buffer, 0.75 g of charcoal and 0.25 g of dextran) to each reaction. Mix the plates for 8 minutes on an orbital shaker at 4° C. and then centrifuge at 3000 rpm at 4° C. for 10 minutes. Transfer an aliquot (120 μL) of the mixture to another 96-well, white flat bottom plate (Costar) and add Perkin Elmer Optiphase Supermix scintillation fluid (175 μL) to each well. Seal the plates and shake vigorously on an orbital shaker. After an incubation of 2.5 hours, read the plates in a Wallac Microbeta counter. […] Convert the IC50 values for the compound to Ki using Cheng-Prusoff equation.

[2] = molecular target: Y537N mutant ERα receptor (Homo sapiens, UniProt P03372, Y537N); test: PRα inhibition (ERα functional antagonism) cell assay in MCF7-ESR1 Y537N 682 CRISPR cells; format: cell-based; conditions: MCF7 Y537N 682 CRISPR cells, 72 hours, % PR positive cells; read-out: Relative IC50
Description: An antagonist in this assay is expected to block the function of the ERα receptor.
Incubate the cells overnight in a cell culture incubator (5% CO2, 95% relative humidity and 37° C.) and allow the cells to attach to the plate. The following day dose the cells with the test compound. Use an Echo 555 acoustic dispenser to prepare compound serial dilutions (1:3) in a range from 6 μM to 0.0003 μM. Dose the cells with the addition of 5 μL from the serial dilution plate to the cell plate producing a final DMSO concentration of 0.2% with a final test compound concentration dose range between 2 and 0.0001 μM. For the maximum point use media containing 0.2% of DMSO and for the minimum point, use fulvestrant diluted at 2 μM final concentrations in the growth media containing 0.2% DMSO. After dosing with test compound, incubate the cell plates at 37° C. and 5% CO2 for 72 hours. Fix the cells by adding 14% para-formaldehyde (10 μL) for 30 minutes at room temperature. Wash the cells with PBS (1×20 μL) and incubate with PBS (20 μL) of containing 0.5% (v/v) TWEEN® 20 for 1 hour. Wash the cells with PBS (2×20 μL) 0.05% TWEEN® 20, and block with 3% BSA/PBS 0.05% TWEEN® 20, 0.1% TRITON™ X-100 (20 μL/well) for 1 hour at room temperature. Add 1:500 primary antibody (20 μL) (PR monoclonal mouse anti-human antibody, clone PgR 636 Dako, M3569) dilution in 1% BSA/PBS 0.05 TWEEN® 20 per well, seal the plates and incubate overnight at 4° C.
The following day, wash the cells with PBS […] (2×20 μL) and incubate with secondary antibody (20 μL/well) (1:1000 dilution, Goat anti-rabbit IgM ALEXA FLUOR™ 488) in PBS 1% BSA for 105 minutes at room temperature. […] Seal the plates and incubate 1 hour at room temperature on the bench (preserved from light). Scan the plates with ACUMEN EXPLORER™ [Laser-scanning fluorescence microplate cytometer manufactured by TTP LABTECH LTD] to measure PRα. Image analysis is based on cellular fluorescent signals for identifying positive cells. Identify PR positive cells by mean intensity. Use total intensity at 575-640 nm from propidium iodide/DNA to identify individual cells. Assay output is % PR positive cells. Determine the IC50 by curve fitting to a four parameter logistic for each output using GENE DATA™.

[3] = test system: MCF7 ESR1 wild type; test: Cell proliferation assay in MCF7; format: cell-based, human; conditions: seven days, read-out: Relative IC50 (μM) MCF7 ESR1 wild type
Description: Seed MCF7 (purchased from ATCC HTB-22) cells at a density of 2,000 cells per well in DMEM phenol red free media 10% FBS (20 μL volume) (charcoal stripped) into a clear bottom 384-well cell culture plate. Plate MCF7-ESRY537N-682 (generated by CRISPR/Cas9 gene editing of ESr1 gene in MCF7 cells, clone #682) in DMEM media supplemented with 10% FBS, and 1% penicillin/streptomycin antibiotics at a density of 1000 cells per well. Incubate the plates at 37° C. and 5% CO2. The following day dose the cells with the test compound. Use an Echo 555 acoustic dispenser to prepare test compound serial dilutions (1:3) in a range from 60 μM to 0.003 μM. Dose the cells with the addition of 5 μL from the serial dilution plate to the cell plate, producing a final DMSO concentration of 0.2% with a final test compound concentration dose range between 20 and 0.001 μM. For the maximum point use media containing 0.2% of DMSO and for the minimum point use fulvestrant diluted at 2 μM final concentrations in the growth media containing 0.2% DMSO. After dosing with the test compound, incubate the cell plates at 37° C. and 5% CO2. Seven days after test compound addition, remove the plates from the incubator and add cold EtOH 96% (65 μL) to each well. […] Seal the plates and incubate 1 hour at room temperature on the bench (preserved from light). Scan the plates with ACUMEN EXPLORER™ [Laser-scanning fluorescence microplate cytometer manufactured by TTP LABTECH LTD].

Sequence of ERα (wild type) (P03372 whole entry): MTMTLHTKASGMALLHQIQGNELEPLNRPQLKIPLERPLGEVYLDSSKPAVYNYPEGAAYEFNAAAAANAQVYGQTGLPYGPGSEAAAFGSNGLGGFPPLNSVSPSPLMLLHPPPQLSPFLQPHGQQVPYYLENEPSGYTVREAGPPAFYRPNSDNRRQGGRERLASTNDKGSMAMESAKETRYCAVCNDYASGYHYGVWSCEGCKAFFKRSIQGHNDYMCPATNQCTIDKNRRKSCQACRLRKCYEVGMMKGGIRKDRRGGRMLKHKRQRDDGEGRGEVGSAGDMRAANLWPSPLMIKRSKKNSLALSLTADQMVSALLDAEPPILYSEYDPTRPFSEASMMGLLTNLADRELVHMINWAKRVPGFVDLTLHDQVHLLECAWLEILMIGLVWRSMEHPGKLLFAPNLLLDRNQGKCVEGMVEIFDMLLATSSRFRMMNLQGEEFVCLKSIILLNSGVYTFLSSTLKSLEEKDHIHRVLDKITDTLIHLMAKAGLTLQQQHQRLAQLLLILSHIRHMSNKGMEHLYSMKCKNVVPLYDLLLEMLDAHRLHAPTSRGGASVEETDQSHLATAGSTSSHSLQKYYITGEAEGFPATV

Ki [1] [nM] | IC50 [2] [nM] | IC50 ([3]; Homo sapiens, MCF7, […]) [µM] | IC50 [3] [µM] | SMILES
12.5 | 394 | – | 0.41 | Oc1ccc2c3c(cnc2c1)-c1ccc(F)cc1OC3c1ccc(OCCN2CC(CF)C2)cc1 (single isomer, unassigned) [Example 5A, 8-Fluoro-5-(4-{2-[3-(fluoromethyl)azetidin-1-yl]ethoxy}phenyl)-5H-[1]benzopyrano[4,3-c]quinolin-2-ol]
1.3 | 18.2 ± 9.82 | – | 0.00767 | Oc1ccc2c3c(cnc2c1)-c1ccc(F)cc1OC3c1ccc(OCCN2CC(CF)C2)cc1 (single isomer, unassigned) [Example 5B, 8-Fluoro-5-(4-{2-[3-(fluoromethyl)azetidin-1-yl]ethoxy}phenyl)-5H-[1]benzopyrano[4,3-c]quinolin-2-ol]
8.53 | 236 | 0.0759 | – | Oc1ccc2c3c(cnc2c1)-c1cccc(F)c1OC3c1ccc(OCCN2CC(CF)C2)cc1 (single isomer, unassigned) [Example 6A, 7-Fluoro-5-(4-{2-[3-(fluoromethyl)azetidin-1-yl]ethoxy}phenyl)-5H-[1]benzopyrano[4,3-c]quinolin-2-ol]
1.13 | 13.6 | – | – | Oc1ccc2c3c(cnc2c1)-c1cccc(F)c1OC3c1ccc(OCCN2CC(CF)C2)cc1 (single isomer, unassigned) [Example 6B, 7-Fluoro-5-(4-{2-[3-(fluoromethyl)azetidin-1-yl]ethoxy}phenyl)-5H-[1]benzopyrano[4,3-c]quinolin-2-ol]
9.33 | 434 ± 195 | – | 0.174 | Cc1cccc2c1OC(c1ccc(OCCN3CC(CF)C3)cc1)c1c-2cnc2cc(O)ccc12 (single isomer, unassigned) [Example 8A, 5-(4-{2-[3-(Fluoromethyl)azetidin-1-yl]ethoxy}phenyl)-7-methyl-5H-[1]benzopyrano[4,3-c]quinolin-2-ol]
0.94 | 8.93 ± 3.83 | – | 0.00508 | Cc1cccc2c1OC(c1ccc(OCCN3CC(CF)C3)cc1)c1c-2cnc2cc(O)ccc12 (single isomer, unassigned) [Example 8B, 5-(4-{2-[3-(Fluoromethyl)azetidin-1-yl]ethoxy}phenyl)-7-methyl-5H-[1]benzopyrano[4,3-c]quinolin-2-ol]

Second part, the molecule before the results:

SMILES | Ki [1] [nM] | IC50 [2] [nM] | IC50 ([3]; Homo sapiens, MCF7, […]) [µM] | IC50 [3] [µM]
Oc1ccc2c3c(cnc2c1)-c1cccc(C(F)(F)F)c1OC3c1ccc(OCCN2CC(CF)C2)cc1 (racemic) [Example 2, 5-(4-{2-[3-(fluoromethyl)azetidin-1-yl]ethoxy}phenyl)-7-(trifluoromethyl)-5H-[1]benzopyrano[4,3-c]quinolin-2-ol] | 2.17 | 14.5 ± 2.62 | 0.00425 | –
Oc1ccc2c3c(cnc2c1)-c1cccc(Cl)c1OC3c1ccc(OCCN2CC(CF)C2)cc1 (racemic) [Example 4, 7-chloro-5-(4-{2-[3-(fluoromethyl)azetidin-1-yl]ethoxy}phenyl)-5H-[1]benzopyrano[4,3-c]quinolin-2-ol] | 0.64 | 38.5 ± 3.87 | 0.0286 | –
Oc1ccc2c3c(cnc2c1)-c1ccc(F)cc1OC3c1ccc(OCCN2CC(CF)C2)cc1 (racemic) [Example 5, 8-fluoro-5-(4-{2-[3-(fluoromethyl)azetidin-1-yl]ethoxy}phenyl)-5H-[1]benzopyrano[4,3-c]quinolin-2-ol] | 2.82 | 66.1 ± 15.5 | 0.0801 | –
Oc1ccc2c3c(cnc2c1)-c1cccc(F)c1OC3c1ccc(OCCN2CC(CF)C2)cc1 (racemic) [Example 6, 7-fluoro-5-(4-{2-[3-(fluoromethyl)azetidin-1-yl]ethoxy}phenyl)-5H-[1]benzopyrano[4,3-c]quinolin-2-ol] | 4.14 | 63.2 ± 16.1 | 0.0513 | –
Cc1ccc2c(c1)OC(c1ccc(OCCN3CC(CF)C3)cc1)c1c-2cnc2cc(O)ccc12 (racemic) [Example 7, 5-(4-{2-[3-(fluoromethyl)azetidin-1-yl]ethoxy}phenyl)-8-methyl-5H-[1]benzopyrano[4,3-c]quinolin-2-ol] | 1.55 | 127 | 0.019 | –
Cc1cccc2c1OC(c1ccc(OCCN3CC(CF)C3)cc1)c1c-2cnc2cc(O)ccc12 (racemic) [Example 8, 5-(4-{2-[3-(fluoromethyl)azetidin-1-yl]ethoxy}phenyl)-7-methyl-5H-[1]benzopyrano[4,3-c]quinolin-2-ol] | 3.2 | 41.2 ± 6.57 | 0.0416 | –
Oc1ccc2c3c(cnc2c1)-c1cccc(C(F)(F)F)c1OC3c1ccc(OCCN2CC(CF)C2)cc1 (single isomer, unassigned) [Example 2A, 5-(4-{2-[3-(Fluoromethyl)azetidin-1-yl]ethoxy}phenyl)-7-(trifluoromethyl)-5H-[1]benzopyrano[4,3-c]quinolin-2-ol] | 0.65 | 24.9 ± 7.39 | – | 0.00612
Oc1ccc2c3c(cnc2c1)-c1cccc(C(F)(F)F)c1OC3c1ccc(OCCN2CC(CF)C2)cc1 (single isomer, unassigned) [Example 2B, 5-(4-{2-[3-(Fluoromethyl)azetidin-1-yl]ethoxy}phenyl)-7-(trifluoromethyl)-5H-[1]benzopyrano[4,3-c]quinolin-2-ol] | 60.4 | 1640 ± 223 | – | 0.405
Oc1ccc2c3c(cnc2c1)-c1cccc(Cl)c1OC3c1ccc(OCCN2CC(CF)C2)cc1 (single isomer, unassigned) [Example 4A, 7-Chloro-5-(4-{2-[3-(fluoromethyl)azetidin-1-yl]ethoxy}phenyl)-5H-[1]benzopyrano[4,3-c]quinolin-2-ol] | 16.8 | 505 | – | 0.286
Oc1ccc2c3c(cnc2c1)-c1cccc(Cl)c1OC3c1ccc(OCCN2CC(CF)C2)cc1 (single isomer, unassigned) [Example 4B, 7-Chloro-5-(4-{2-[3-(fluoromethyl)azetidin-1-yl]ethoxy}phenyl)-5H-[1]benzopyrano[4,3-c]quinolin-2-ol] | 0.34 | 11.8 | – | 0.0035
